In publication PMC9330653, “Targeting the Ubiquinol-Reduction (Qi) Site of the Mitochondrial Cytochrome bc1 Complex for the Development of Next Generation Quinolone Antimalarials” (Biology, 2022):
Converted amounts (≈) assume the structure as drawn. Where two headings read alike, the source gives them in different places.

Experiments:
[1] = test system: Plasmodium falciparum TM90C2B; conditions: atovaquone resistant parasite TM90C2B; cited from earlier work
[2] = target: T1, bovine cytochrome bc1 (Bos taurus, UniProt P00157); experiment: Bovine cytochrome bc1 activity assay; format: biochemical; conditions: triplicate
T1 construct: Crude mitochondria were isolated from fresh bovine hearts; from tissue; host or cells: bovine heart mitochondria
Procedure: Cytochrome bc1 was purified from mitochondria, as previously described. Crude mitochondria were isolated from fresh bovine hearts and solubilized with the addition of dodecyl-maltoside (DDM). The solubilized protein was loaded onto a 50 mL DEAE Sepharose CL6B (GE Healthcare, Uppsala, Sweden) column pre-equilibrated in and washed with three column volumes of 50 mM KPi pH 7.5, 250 mM NaCl, 0.5 mM EDTA, and 0.01% DDM. The bound protein was eluted along a linear gradient from 250 to 500 mM NaCl. Cytochrome bc1 fractions were pooled and concentrated in a centrifugal ultrafilter (MWCO. 100 kDa) and loaded onto a 120 mL Sephacryl S300 column (GE Healthcare, Uppsala, Sweden) equilibrated in and eluted at a flow rate of 0.5 mL/min with 20 mM KMOPS pH 7.2, 100 mM NaCl, 0.5 mM EDTA, 0.01% DDM. Cytochrome bc1 fractions were pooled and concentrated to 40 mg/mL. PEG fractionation with an increasing amount of PEG4000 was used to precipitate cytochrome bc1. […] The inhibitors were dissolved in DMSO at the concentration of 50 mM and 5 μM cytochrome bc1 was incubated with 50 μM inhibitor (10-fold molar excess) at 4 °C for 12 h.
The inhibitors were added to the assay without prior incubation. The reaction was initiated by the addition of 50 μM decylubiquinol (Sigma-Aldrich, St. Louis, MO, USA).

[3] = design: method as in doi:10.1039/C5MD00062A; conditions: at pH 1; cited from earlier work
[4] = test system: Plasmodium falciparum 3D7; conditions: drug sensitive P. falciparum 3D7 whole cells; cited from earlier work
[5] = target: T2, Pfbc1 (P. falciparum cytochrome bc1) (Plasmodium falciparum, UniProt Q02768); conditions: cited from earlier work
T2 sequence (Q02768 1-376): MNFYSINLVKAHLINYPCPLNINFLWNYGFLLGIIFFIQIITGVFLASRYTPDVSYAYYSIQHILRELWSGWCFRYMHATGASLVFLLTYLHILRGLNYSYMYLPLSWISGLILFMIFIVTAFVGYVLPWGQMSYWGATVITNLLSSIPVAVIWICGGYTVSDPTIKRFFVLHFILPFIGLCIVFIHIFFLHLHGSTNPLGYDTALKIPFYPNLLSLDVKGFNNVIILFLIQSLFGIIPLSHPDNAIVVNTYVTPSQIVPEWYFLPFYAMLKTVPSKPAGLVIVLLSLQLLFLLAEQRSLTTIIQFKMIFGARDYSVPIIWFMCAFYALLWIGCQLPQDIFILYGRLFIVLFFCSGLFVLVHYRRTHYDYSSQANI

[6] = test system: Plasmodium falciparum FCR3A strain; design: method as in PMID 23234553; conditions: FCR3A strain used as atovaquone-resistant parasite (footnote †); read-out: IC50 (nM) (TM90C2B); cited from earlier work
[7] = target: PfNDH2 (P. falciparum mitochondrial type II NADH: ubiquinone oxidoreductase); conditions: cited from earlier work
[8] = target: T2, Pfbc1 (P. falciparum cytochrome bc1); experiment: Pf cytochrome bc1 enzyme inhibition; format: biochemical; conditions: at 100 nM; single point concentration only, full IC50 not available; measured in this work
Text: Table 1 Inhibition profiles of selected antimalarial compounds against whole cells of Plasmodium falciparum (Pf) (3D7 and TM90C2B strains) and individual mitochondrial enzymes. | column: IC50 (nM) (Pfbc1) *

[9] = single point concentration only, full IC50 not available

Compound | IC50 [1] [nM] | inhibition at 0.1 µM [2] [%] | inhibition at 1 µM [2] [%] | aqueous solubility [3] [µM] | IC50 [4] [nM] | IC50 [5] [nM] | IC50 [6] [nM] | IC50 [7, 9] [nM] | IC50 (nM) (TM90C2B) [1] | IC50 [7] [nM] | inhibition at 0.1 µM [8] [%]
COc1cc2[nH]c(C)c(-c3ccc(Oc4ccc(OC(F)(F)F)cc4)cc3)c(=O)c2cc1Cl [ELQ300] | 1.7 | 22 ± 5 | 51 ± 7 | < 1 | 2.2 | 0.56 | – | – | – | – | –
Cc1[nH]c(CO)c(-c2ccc(Oc3ccc(OC(F)(F)F)cc3)cc2)c(=O)c1Cl [GSK932121] | – | 65 ± 4 | 82 ± 5 | – | 6 | 7 | 6 | > 10000 | – | – | –
Cc1[nH]c(C)c(-c2ccc(Oc3ccc(OC(F)(F)F)cc3)cc2)c(=O)c1Cl [GW844520] | – | 59 ± 6 | 79 ± 3 | – | 5 | 2 | 2 | > 10000 | – | – | –
Cc1c(-c2ccc(Cc3ccc(OC(F)(F)F)cc3)cc2)n(O)c2ccccc2c1=O [RKA066] | 217 ± 18 | 81 ± 4 | 93 ± 2 | – | 22 ± 0.4 | 28 | – | – | triple-digit nanomolar | 55 | –
COc1ccc2c(=O)c(C)c(-c3cncc(-c4ccc(OC(F)(F)F)cc4)c3)[nH]c2c1 [SCR0911] | 7.2 | 9 ± 2 | 72 ± 5 | 7.8 (≈ 3.33 µg/mL) | 12 ± 3 | – | – | > 1000 | – | – | 80
Cc1[nH]c2ccccc2c(=O)c1-c1ccc(Cc2ccc(OC(F)(F)F)cc2)cc1 [WDH-1U-4] | 5 ± 2 | 7 ± 1 | 61 ± 3 | – | 36 ± 6 | < 10 | – | – | – | 492 | –
